# Measurements reported in US9820972B2, “Antiviral compounds highly effective as HCV-NS5A inhibitor” (priority 2013, dated 2017).
# Like-named read-outs stand apart in the source and are kept apart here.
# How the values were obtained:
# HCV NS5A Replicon GT-6a = assay: HCV double reporter gene replicon assay, GT-6a; assay type: cell-based; conditions: Hepatitis C virus, genotype 1a / genotype 6a; GT-6a replicon
# Method: (§1) Antiviral Assay for Inhibition Activity (EC50):
# (§2) The study is completed by a new constructed double reporter genes replicon assay system, the capacity of viral replicon in infected cell is determined by detecting the reporter gene Renilla luciferase. The relationship of reporter genes, HCV RNA replicon and viral proteins is well linear. 8 gradient concentrations for 2-fold dilution, 3 wells, 3 times repetition and 1 or 2 control drugs are set to finally determine EC50 of compound.
# (§3) THF was distilled from sodium metal and benzophenone. DCM, pentane and hexane were distilled form calcium hydride. Special raw material and intermediate in the invention were ordered by contract synthesis from Zannan SciTech Co., Let in China, others reagents were purchased from Shanghai reagent company, Aldrich, Acros etc. As intermediates or products during the synthesis is not required for the reaction and other tests the next step, the synthesis is repeated until a sufficient number of times. The invention of the prepared compounds of […] (HCV NS5A) inhibitory activity test was performed by CRO service units such as WuXi AppTec etc.
# [1] = Acute Toxicity Study (MTD); assay type: in vivo, rats and mice; conditions: rats or mice, fed once, oral dose 10000 mg/kg, observed for a week
# Excerpt: Acute Toxicity Study (MTD):
# Materials and Methods for MTD Study are as follows:
# Animals were fed freely for adaptation more than 1 week. Healthy rats, body weight between 170-190 g, were divided randomly into 3 groups, 5 male and 5 female in each group. Healthy mice, body weight between 18-22 g, were divided randomly into 22 groups, 5 male and 5 female in each group.
# In rats, the compound weighing 21.00 g, serial number 1-3 respectively, adding 0.7% sodium carboxymethyl cellulose solution 30.00 g, high-speed homogenizer machine 15000 RPM, 10 min mixing, the rats were fed once, oral dose 10000 mg/kg. In mice, the compound weighing 2.00 g, serial number 4-25 respectively, adding 0.7% sodium carboxymethyl cellulose solution 8.00 g, high-speed homogenizer machine 10000 RPM, 10 min mixing, the mice were fed once, oral dose 10000 mg/kg.
# Animals were observed every hour after administration in the first day, and behavior observation daily continuous for a week. Dead animals were necropsied, gross pathology of the organs were observed and recorded.
# Toxicity was evaluated by animal mortality, signs of clinical behavior and others.
# HCV NS5A Replicon GT-2a = assay: HCV double reporter gene replicon assay, GT-2a; assay type: cell-based; conditions: Hepatitis C virus, genotype 1a / genotype 2a / genotype 6a; GT-2a replicon
# Method: as §1, §2, §3
# HCV NS5A Replicon GT-4a = assay: HCV double reporter gene replicon assay, GT-4a; assay type: cell-based; conditions: Hepatitis C virus, genotype 1a / genotype 4a / genotype 6a; GT-4a replicon
# Method: as §1, §2, §3
# HCV NS5A Replicon GT-5a = assay: HCV double reporter gene replicon assay, GT-5a; assay type: cell-based; conditions: Hepatitis C virus, genotype 1a / genotype 5a / genotype 6a; GT-5a replicon
# Method: as §1, §2, §3
# GT-1a of NS5A Replicon = assay: HCV double reporter gene (Renilla luciferase) replicon assay, GT-1a; assay type: cell-based, Hepatitis C virus (HCV); conditions: Hepatitis C virus
# Method in brief: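 Replication measured in a double-reporter HCV replicon cell system by Renilla luciferase signal. EC50 from 8-point 2-fold dilutions, triplicate wells, three repeats, with 1 or 2 control drugs.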
# HCV NS5A Replicon GT-3a = assay: HCV double reporter gene replicon assay, GT-3a; assay type: cell-based; conditions: Hepatitis C virus, genotype 1a / genotype 3a / genotype 6a; GT-3a replicon
# Method: as §1, §2, §3
# HCV NS5A Replicon GT-1b = assay: HCV double reporter gene replicon assay, GT-1b; assay type: cell-based; conditions: Hepatitis C virus, genotype 1a / genotype 1b / genotype 6a; GT-1b replicon
# Method: as §1, §2, §3
smiles,measurement,setting,value
COC(=O)N[C@@H](C(=O)N1CC=CC1c1nc(-c2ccc(-c3cc4sc(-c5c[nH]c(C6CCCN6C(=O)[C@H](NC(=O)OC)c6ccccc6)n5)cc4s3)cc2)c[nH]1)c1ccccc1 (stereo partly drawn) [Compound 6fd],EC50,HCV NS5A Replicon GT-6a,111 pM
same,MTD results: test-article related death and adverse events,[1],no any test-article related death and no any adverse events observed
same,EC50,HCV NS5A Replicon GT-2a,5 pM
same,EC50,HCV NS5A Replicon GT-4a,8 pM
same,EC50,HCV NS5A Replicon GT-5a,23 pM
same,EC50,"GT-1a of NS5A Replicon; GT1A, GT-1a replicon, class symbols, read-out: EC50 For GT-1a of NS5A Replicon",1 to 999 pM
same,EC50,"GT-1a of NS5A Replicon; genotype 1a / genotype 6a, read-out: EC50 for Replicon (pM) of GT-1a to GT-6a: 1a",21 pM
same,EC50,HCV NS5A Replicon GT-3a,15 pM
same,EC50,HCV NS5A Replicon GT-1b,11 pM
